Assay results from paper PMC3091966 (2011).

Key:
[1] = target: T1, human αβγ ENaC (α subunit) (Homo sapiens, UniProt P37088+P51168+P51170); assay: two-electrode voltage clamp in Xenopus oocytes, external perfusion; format: cell-based
T1 sequence (P37088 1-669): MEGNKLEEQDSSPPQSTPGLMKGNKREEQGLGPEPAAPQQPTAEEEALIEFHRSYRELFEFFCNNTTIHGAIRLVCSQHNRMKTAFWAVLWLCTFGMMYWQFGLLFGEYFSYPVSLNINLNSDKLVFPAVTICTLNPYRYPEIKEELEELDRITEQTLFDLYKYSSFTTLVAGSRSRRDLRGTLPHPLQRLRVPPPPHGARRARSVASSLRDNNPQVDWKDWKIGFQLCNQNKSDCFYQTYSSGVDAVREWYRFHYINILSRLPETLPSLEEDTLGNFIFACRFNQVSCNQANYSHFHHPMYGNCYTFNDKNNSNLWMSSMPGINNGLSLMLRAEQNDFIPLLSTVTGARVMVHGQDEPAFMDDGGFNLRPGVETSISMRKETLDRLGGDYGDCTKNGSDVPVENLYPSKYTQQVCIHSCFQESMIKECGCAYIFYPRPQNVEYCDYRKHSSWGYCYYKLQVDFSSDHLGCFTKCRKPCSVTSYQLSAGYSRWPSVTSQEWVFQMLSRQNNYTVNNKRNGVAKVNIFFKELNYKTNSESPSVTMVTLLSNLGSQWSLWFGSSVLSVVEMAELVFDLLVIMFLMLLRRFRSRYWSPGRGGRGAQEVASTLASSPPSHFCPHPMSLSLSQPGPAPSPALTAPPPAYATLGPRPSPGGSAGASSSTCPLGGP
T1 sequence (P51168 1-640): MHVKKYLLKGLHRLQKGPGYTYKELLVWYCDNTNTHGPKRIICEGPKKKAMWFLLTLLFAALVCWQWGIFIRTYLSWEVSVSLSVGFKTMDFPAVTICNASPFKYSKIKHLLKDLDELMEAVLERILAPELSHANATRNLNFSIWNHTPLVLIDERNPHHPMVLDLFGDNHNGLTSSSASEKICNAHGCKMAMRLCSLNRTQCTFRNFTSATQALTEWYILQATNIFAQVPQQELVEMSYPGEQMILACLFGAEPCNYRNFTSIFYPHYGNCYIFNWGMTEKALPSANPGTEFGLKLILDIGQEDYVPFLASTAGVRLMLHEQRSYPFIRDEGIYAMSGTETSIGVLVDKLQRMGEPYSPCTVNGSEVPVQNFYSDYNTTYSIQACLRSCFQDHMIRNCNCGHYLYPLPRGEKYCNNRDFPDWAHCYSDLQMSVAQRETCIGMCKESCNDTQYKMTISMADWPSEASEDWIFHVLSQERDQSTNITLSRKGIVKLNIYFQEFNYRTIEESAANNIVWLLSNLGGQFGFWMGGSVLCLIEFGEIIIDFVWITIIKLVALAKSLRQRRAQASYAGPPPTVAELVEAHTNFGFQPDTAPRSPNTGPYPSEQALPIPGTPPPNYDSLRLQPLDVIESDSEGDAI
T1 sequence (P51170 1-649): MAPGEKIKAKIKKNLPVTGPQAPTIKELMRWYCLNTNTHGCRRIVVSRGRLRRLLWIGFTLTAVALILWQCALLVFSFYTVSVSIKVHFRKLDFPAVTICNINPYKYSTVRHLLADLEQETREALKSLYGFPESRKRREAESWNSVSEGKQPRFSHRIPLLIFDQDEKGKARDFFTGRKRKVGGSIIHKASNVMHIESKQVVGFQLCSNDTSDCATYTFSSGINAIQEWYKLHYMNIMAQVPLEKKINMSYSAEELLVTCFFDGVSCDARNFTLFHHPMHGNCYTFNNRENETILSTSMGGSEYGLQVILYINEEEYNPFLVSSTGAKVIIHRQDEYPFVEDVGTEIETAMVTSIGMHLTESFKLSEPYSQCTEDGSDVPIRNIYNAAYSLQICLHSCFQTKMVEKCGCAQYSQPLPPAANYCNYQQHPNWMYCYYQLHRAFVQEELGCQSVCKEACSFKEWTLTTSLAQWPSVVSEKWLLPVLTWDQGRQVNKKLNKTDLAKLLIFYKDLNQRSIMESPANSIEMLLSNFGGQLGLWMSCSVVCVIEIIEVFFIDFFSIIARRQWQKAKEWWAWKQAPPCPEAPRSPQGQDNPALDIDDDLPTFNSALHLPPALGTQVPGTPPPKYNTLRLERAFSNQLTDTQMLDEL

[2] = target: T1, human αβγ ENaC (α subunit); assay: two-electrode voltage clamp in Xenopus oocytes, block of current; format: cell-based

EC50 [1] [µM] | SMILES | two-electrode voltage clamp in Xenopus oocytes, block of current [2]
49 ± 14 | Nc1ncnc2c1nc(Sc1ccc(Cl)cc1)n2[C@@H]1O[C@@H]2COP(=O)(O)O[C@H]2[C@H]1O [cpt-cAMP] | 
 | N=C(N)NC(=O)c1nc(Cl)c(N)nc1N [amiloride] | Both basal and elevated currents were sensitive to amiloride.
